A short description of data set [1]: Half life in human liver microsomes. (In general: Liver microsomes are vesicles of endoplasmic reticulum, rich in cytochrome P450 enzymes.)
For data set [2], the target named is Insulin receptor (Homo sapiens, UniProt P06213). In words: Inhibition of GST-tagged intracellular domain of IR by homogeneous time-resolved fluorescence assay. The data set is classed as single protein.
Data set [3] can be described thus: Half life in rat liver microsomes.
A short description of data set [4]: Half life in dog liver microsomes.
Data set [5] concerns the target T1, Vascular endothelial growth factor receptor 2 (Homo sapiens, UniProt P35968). The experiment in a line: Inhibition of human cytoplasmic domain of VEGFR-2 by time-resolved fluorescence assay.
The nature of data set [6]: Half life in mouse liver microsomes.
In data set [7] the target is ALK tyrosine kinase receptor (Homo sapiens, UniProt Q9UM73). In words: Inhibition of ALK.
Data set [8] can be described thus: Half life in rat at 1 mg/kg, iv. The data set is classed as ADME, organism-based. The settings on record: in vivo. On the set-up: dose 1 mg/kg, route intravenous.
The nature of data set [9]: AUC in rat at 1 mg/kg, iv. The data set is classed as ADME, organism-based. On the set-up: dose 1 mg/kg, route intravenous. The settings on record: plasma.
The nature of data set [10]: AUC in rat at 5 mg/kg, po. The data set is classed as ADME, organism-based. On the set-up: dose 5 mg/kg, route oral. The settings on record: plasma.
The nature of data set [11]: Clearance in rat at 1 mg/kg, iv. On the set-up: dose 1 mg/kg, route intravenous. The data set is classed as ADME, organism-based. The note with it: in vivo.
Data set [12] has as its target T1, Vascular endothelial growth factor receptor 2. In words: Inhibition of human cytoplasmic domain of VEGFR-2 at 1 uM by time-resolved fluorescence assay.
The nature of data set [13]: Volume of distribution in rat at 1 mg/kg, iv. On the set-up: dose 1 mg/kg, route intravenous. The note with it: in vivo. The format is ADME, organism-based.

ALK tyrosine kinase receptor, sequence (Q9UM73 whole entry): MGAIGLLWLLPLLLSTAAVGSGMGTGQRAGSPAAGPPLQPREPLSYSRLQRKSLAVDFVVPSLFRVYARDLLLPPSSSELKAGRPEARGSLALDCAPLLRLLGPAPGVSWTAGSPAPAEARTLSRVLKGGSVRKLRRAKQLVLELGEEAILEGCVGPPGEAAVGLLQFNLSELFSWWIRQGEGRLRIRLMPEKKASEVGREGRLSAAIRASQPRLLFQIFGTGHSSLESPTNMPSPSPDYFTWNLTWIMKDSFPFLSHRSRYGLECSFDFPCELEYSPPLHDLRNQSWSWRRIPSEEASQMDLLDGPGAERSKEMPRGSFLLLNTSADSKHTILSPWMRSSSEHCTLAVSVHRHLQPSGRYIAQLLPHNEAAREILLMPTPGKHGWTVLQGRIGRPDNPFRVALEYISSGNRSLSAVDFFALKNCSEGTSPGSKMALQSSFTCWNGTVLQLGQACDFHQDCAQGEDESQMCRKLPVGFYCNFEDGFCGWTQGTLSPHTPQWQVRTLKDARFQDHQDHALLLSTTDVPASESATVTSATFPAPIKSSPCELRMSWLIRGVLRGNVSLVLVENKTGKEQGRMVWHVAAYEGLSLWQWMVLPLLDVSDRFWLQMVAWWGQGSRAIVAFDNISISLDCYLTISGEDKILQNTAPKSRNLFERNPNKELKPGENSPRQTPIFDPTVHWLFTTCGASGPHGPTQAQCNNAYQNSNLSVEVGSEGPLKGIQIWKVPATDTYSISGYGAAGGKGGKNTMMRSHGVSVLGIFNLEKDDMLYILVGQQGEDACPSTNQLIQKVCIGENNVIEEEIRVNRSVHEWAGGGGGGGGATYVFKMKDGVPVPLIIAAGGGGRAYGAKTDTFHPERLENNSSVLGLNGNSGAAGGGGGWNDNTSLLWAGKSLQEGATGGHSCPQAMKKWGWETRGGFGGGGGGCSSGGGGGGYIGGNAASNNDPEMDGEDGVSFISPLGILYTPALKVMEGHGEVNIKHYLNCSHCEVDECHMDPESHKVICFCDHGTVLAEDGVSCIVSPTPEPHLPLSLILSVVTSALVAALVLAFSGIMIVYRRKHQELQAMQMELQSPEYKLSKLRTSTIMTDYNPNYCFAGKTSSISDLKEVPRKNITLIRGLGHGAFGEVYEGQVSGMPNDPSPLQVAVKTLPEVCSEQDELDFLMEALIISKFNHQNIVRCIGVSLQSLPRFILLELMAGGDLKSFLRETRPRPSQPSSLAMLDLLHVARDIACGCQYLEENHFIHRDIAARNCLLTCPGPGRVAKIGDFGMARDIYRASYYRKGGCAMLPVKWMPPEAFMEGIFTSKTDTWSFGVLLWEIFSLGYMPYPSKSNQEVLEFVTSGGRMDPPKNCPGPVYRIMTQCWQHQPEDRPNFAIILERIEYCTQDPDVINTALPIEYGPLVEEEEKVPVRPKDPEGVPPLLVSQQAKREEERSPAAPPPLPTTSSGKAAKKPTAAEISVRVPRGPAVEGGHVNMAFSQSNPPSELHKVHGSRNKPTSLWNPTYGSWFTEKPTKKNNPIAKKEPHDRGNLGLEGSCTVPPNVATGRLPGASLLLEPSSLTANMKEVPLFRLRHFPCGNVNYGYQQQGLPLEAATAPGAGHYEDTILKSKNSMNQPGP
T1 sequence (P35968 whole entry, the tested form may be a part): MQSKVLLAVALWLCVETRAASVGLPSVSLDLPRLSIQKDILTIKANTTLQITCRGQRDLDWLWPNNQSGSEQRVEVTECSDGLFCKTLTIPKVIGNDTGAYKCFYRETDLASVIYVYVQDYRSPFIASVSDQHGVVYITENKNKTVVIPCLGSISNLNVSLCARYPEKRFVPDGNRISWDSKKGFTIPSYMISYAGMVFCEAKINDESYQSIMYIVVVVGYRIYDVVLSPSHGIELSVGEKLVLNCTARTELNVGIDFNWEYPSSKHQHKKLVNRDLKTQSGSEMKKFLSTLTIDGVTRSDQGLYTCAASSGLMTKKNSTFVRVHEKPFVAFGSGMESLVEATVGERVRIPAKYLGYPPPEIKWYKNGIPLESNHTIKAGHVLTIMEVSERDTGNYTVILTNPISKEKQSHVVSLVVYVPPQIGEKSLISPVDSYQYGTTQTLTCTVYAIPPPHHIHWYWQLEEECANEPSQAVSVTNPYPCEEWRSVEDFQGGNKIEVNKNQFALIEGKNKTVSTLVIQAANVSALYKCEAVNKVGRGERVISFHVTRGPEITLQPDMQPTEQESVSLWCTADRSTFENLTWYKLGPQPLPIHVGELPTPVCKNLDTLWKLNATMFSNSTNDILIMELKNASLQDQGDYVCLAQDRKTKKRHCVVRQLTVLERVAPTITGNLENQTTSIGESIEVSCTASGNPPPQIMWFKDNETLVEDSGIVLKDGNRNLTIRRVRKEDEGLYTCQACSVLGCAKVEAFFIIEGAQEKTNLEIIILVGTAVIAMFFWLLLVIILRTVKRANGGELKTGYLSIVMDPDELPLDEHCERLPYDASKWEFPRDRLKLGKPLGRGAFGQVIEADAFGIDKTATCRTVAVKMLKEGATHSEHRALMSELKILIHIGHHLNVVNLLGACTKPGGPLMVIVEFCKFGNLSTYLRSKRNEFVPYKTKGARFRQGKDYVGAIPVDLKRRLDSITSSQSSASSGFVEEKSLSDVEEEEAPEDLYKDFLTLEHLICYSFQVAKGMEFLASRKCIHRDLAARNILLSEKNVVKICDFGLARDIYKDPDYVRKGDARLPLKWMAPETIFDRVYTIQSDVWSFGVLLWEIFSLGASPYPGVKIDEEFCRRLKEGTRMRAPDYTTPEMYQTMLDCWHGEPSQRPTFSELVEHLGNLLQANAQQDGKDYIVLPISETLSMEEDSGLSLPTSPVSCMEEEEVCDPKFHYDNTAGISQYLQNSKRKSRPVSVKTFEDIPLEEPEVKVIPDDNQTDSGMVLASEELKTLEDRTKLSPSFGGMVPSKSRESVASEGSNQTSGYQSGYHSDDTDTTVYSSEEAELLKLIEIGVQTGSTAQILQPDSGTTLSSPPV

Consider `Cc1nnsc1C1=NNC(=O)/C1=C\c1cn(C)c2cccc(OCc3ccccc3)c12`, for which the half-life in data set [1] (liver microsomes) is 32 min; in data set [3] (liver microsomes) it was over 40 min; in data set [4] (liver microsomes), 29 min; in [6] (liver microsomes) it was over 40 min. For the same compound, the IC50 in data set [2] was over 10000 nM; in [5], over 300 nM.

For `Cc1nnsc1C1=NNC(=O)/C1=C\c1cn(C)c2cccc(OCc3ccc(F)cc3)c12`, the IC50 in data set [2] was over 10000 nM.

Take `CCOc1cccc2c1c(/C=C1\C(=O)NN=C1c1snnc1C)cn2C`: the half-life in data set [1] (microsomes) was found to be 6 min; in [3] (microsomes) it was 5 min; in data set [4] (microsomes), 5 min; in [6] (microsomes), 5 min. The compound also had an IC50 in data set [2] of 998 nM.

Regarding `Cc1nnsc1C1=NNC(=O)/C1=C\c1cn(C)c2cccc(OCc3ccccc3F)c12`, the IC50 in data set [2] was over 10000 nM.

With `Cn1cc(/C=C2\C(=O)NN=C2c2nccs2)c2c(OCc3c(F)cccc3Cl)cccc21`, in data set [2], the IC50 was found to be 1410 nM.

As to `Cn1cc(/C=C2\C(=O)NN=C2c2nccs2)c2c(OCc3c(F)cccc3F)cccc21`, the half-life was found to be 7 min in data set [1] (microsomes), 6 min in [3] (microsomes), 10 min in data set [4] (microsomes) and 6 min in data set [6] (microsomes). The compound also gave an IC50 in [2] of 428 nM.

For `Cc1nnsc1C1=NNC(=O)/C1=C\c1cn(C)c2cccc(OCc3c(F)ccc(F)c3Cl)c12`, the half-maximal inhibitory concentration (IC50) in data set [2] was found to be 661 nM.

The compound `Cc1nnsc1C1=NNC(=O)/C1=C\c1cn(C)c2cccc(OCc3ccccn3)c12` came in with an IC50 in data set [7] of 158 nM.

For the compound `Cn1cc(/C=C2\C(=O)NN=C2c2nccs2)c2c(OCc3ccc(F)cc3)cccc21`, half-maximal inhibition in data set [7] (IC50) required 63 nM.

For `Cc1nnsc1C1=NNC(=O)/C1=C\c1cn(C)c2cccc(OCc3cccc(F)c3)c12`, the IC50 in data set [2] is over 10000 nM.

Regarding `Cn1cc(/C=C2\C(=O)NN=C2c2nccs2)c2c(OCc3ccccc3)cccc21`, the half-life in [1] (microsomes) was 30 min; in data set [8], 41.4 min; in data set [3] (microsomes) it was 30 min; in [4] (microsomes), 22 min; in data set [6] (microsomes) it was 25 min. In [2], this compound gave an IC50 of 9120 nM. In addition, the area under the curve (AUC) worked out at 972 ng·h/mL in [9] and 13 ng·h/mL in data set [10]. Besides, the clearance in data set [11] worked out at 19.6 mL/min. The same compound came in with an inhibition in data set [12] of 50%. Moreover, the Vd in [13] stood at 1.2 L/kg.

In the case of `Cn1cc(/C=C2\C(=O)NN=C2c2nccs2)c2c(OCc3ccc(F)cc3F)cccc21`, the IC50 in data set [7] stood at 229 nM.

In the case of `Cn1cc(/C=C2\C(=O)NN=C2c2cccs2)c2c(OCc3ccccc3)cccc21`, in [7], the IC50 came out at 104 nM.

Consider `Cc1nnsc1C1=NNC(=O)/C1=C\c1cn(C)c2cccc(OCc3c(F)cccc3Cl)c12`, for which inhibition in data set [2] was half-maximal at 720 nM (IC50).

For the compound `Cn1cc(/C=C2\C(=O)NN=C2c2nccs2)c2c(OCc3cccc(F)c3)cccc21`, the half-life in data set [1] (liver microsomes) amounted to 10 min; in data set [3] (liver microsomes), 8 min; in data set [4] (liver microsomes) it was 8 min; in data set [6] (liver microsomes) it was 6 min. Moreover, the IC50 in [2] is over 1000 nM. The compound also yielded an inhibition in data set [12] of 50%.

Take `Cn1cc(/C=C2\C(=O)NN=C2c2cccnc2)c2c(OCc3ccccc3)cccc21`: the IC50 in data set [7] was 54 nM.

Compound `Cc1nnsc1C1=NNC(=O)/C1=C\c1cn(C)c2cccc(OCc3c(F)cccc3F)c12` gave a half-inhibitory concentration (IC50) in [2] of over 1000 nM.

Take `Cn1cc(/C=C2\C(=O)NN=C2c2nccs2)c2c(OCc3cccc(F)c3F)cccc21`: the half-life in data set [1] (liver microsomes) came to 14 min; in [3] (liver microsomes) it was 10 min; in data set [4] (liver microsomes), 12 min; in [6] (liver microsomes), 8 min. Besides, the half-maximal inhibitory concentration (IC50) in data set [2] turned out to be 6500 nM.

For `Cc1nnsc1C1=NNC(=O)/C1=C\c1cn(C)c2cccc(OCCN(C)C)c12`, inhibition in data set [7] was half-maximal at 291 nM (IC50).

`Cc1nnsc1C1=NNC(=O)/C1=C\c1cn(C)c2cccc(OCc3ccc(F)cc3F)c12` returned an IC50 in data set [2] of over 10000 nM.

With `Cn1cc(/C=C2\C(=O)NN=C2c2nccs2)c2c(OCc3ccccc3F)cccc21`, in data set [2], the IC50 was over 10000 nM.

As to `CN(C)c1nnc(C2=NNC(=O)/C2=C\c2cn(C)c3cccc(OCc4ccccc4)c23)s1`, the IC50 in data set [7] was 4600 nM.

Take `Cn1cc(/C=C2\C(=O)NN=C2c2nc(C(F)(F)F)cs2)c2c(OCc3ccccc3)cccc21`: in [7], the IC50 was 10000 nM.

In data set [2], `CC(Oc1cccc2c1c(/C=C1\C(=O)NN=C1c1nccs1)cn2C)c1ccccc1` (stereo not drawn) returned an IC50 of over 10000 nM.

With `Cc1nnsc1C1=NNC(=O)/C1=C\c1cn(C)c2cccc(OCc3c(F)ccc(Cl)c3F)c12`, half-maximal inhibition in data set [2] (IC50) required 861 nM.

`Cc1nc(COc2cccc3c2c(/C=C2\C(=O)NN=C2c2snnc2C)cn3C)cs1` had an IC50 in [7] of 3000 nM.

One may read the half-life as how long it takes for the measured level to halve. A high value points to slow decline. Broadly, the IC50 is the concentration that gives 50% inhibition. A high value points to a need for much substance. The term AUC denotes the area under the concentration-time curve, a measure of exposure. In general, clearance refers to the volume of plasma or blood freed of the substance per unit of time. In general, inhibition refers to the drop in the measured response relative to a control, in per cent. Low readings indicate a weak effect, high ones a strong effect. In general, Vd refers to the apparent volume that relates the amount in the body to the concentration in plasma or blood. Low readings indicate little distribution into tissue, high ones wide distribution into tissue.

For the origin of these results see ChEMBL document CHEMBL1921676, “Pyrazolone-based anaplastic lymphoma kinase (ALK) inhibitors: control of selectivity by a benzyloxy group” (Bioorg Med Chem Lett, 2011).
